In patent US20020026051A1, “Dithiepino [6,5-b]pyridines, and related compositions and methods” (priority 1999, published 2002) one finds IC50 data, which are given here for 34 compounds.

SMILES strings stand for the structures.

One may read the IC50 as the midpoint of a concentration-inhibition curve.

T1 sequence (P15381 whole entry, other chains not shown): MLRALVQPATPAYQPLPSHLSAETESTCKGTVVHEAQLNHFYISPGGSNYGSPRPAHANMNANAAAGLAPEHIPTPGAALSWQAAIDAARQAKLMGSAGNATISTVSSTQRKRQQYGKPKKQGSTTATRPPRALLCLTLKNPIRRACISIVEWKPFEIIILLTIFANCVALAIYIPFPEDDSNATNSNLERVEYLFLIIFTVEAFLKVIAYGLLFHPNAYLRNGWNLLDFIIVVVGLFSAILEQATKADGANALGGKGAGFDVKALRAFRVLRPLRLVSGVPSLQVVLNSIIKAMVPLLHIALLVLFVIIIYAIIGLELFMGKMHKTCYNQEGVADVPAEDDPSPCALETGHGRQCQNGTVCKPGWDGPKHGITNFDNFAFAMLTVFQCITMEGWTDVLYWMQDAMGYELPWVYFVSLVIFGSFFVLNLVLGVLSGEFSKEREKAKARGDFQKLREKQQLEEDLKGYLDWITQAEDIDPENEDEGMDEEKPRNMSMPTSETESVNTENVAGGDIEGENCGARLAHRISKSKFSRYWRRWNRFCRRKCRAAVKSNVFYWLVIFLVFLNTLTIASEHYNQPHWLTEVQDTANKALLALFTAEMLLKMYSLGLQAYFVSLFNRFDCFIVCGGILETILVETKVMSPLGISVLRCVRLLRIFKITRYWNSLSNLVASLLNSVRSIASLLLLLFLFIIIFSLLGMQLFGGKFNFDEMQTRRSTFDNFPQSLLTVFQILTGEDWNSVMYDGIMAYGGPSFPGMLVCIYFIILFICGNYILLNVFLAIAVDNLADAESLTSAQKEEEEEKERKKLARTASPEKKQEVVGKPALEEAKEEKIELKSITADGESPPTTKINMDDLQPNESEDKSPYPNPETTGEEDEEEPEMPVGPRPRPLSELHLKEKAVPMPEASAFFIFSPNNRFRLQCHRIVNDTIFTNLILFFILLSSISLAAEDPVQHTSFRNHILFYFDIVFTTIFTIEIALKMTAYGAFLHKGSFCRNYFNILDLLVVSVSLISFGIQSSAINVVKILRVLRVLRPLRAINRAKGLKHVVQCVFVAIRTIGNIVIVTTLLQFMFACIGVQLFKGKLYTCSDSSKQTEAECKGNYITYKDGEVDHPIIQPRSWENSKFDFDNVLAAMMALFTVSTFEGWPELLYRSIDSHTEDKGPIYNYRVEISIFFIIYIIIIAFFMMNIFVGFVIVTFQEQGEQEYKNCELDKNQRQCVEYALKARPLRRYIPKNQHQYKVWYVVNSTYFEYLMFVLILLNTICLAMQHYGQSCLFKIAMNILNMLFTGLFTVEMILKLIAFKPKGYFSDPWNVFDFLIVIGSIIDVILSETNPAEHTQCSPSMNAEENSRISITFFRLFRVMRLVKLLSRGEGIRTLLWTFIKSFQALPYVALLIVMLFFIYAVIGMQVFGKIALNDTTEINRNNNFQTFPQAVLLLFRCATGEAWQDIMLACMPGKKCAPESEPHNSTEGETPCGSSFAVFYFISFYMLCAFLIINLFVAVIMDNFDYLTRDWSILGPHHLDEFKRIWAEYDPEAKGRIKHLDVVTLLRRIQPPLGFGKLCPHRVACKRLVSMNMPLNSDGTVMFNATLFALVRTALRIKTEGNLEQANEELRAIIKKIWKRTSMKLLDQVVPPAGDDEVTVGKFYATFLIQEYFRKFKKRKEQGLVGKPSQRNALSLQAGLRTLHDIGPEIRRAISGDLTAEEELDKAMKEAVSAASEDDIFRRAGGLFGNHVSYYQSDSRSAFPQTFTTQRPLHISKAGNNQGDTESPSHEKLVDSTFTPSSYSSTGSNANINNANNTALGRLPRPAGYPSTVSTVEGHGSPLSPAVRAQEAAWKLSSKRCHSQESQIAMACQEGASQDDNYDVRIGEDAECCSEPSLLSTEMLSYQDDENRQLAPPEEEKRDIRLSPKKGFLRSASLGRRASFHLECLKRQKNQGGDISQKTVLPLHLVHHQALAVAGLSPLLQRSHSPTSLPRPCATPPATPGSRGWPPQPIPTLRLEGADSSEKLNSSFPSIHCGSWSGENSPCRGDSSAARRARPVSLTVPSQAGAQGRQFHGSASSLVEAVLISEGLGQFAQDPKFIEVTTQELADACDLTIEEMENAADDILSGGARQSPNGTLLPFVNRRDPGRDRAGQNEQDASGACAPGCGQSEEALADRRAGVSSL
T1 sequence (P13806 27-960 partner limits assumed, other chains not shown): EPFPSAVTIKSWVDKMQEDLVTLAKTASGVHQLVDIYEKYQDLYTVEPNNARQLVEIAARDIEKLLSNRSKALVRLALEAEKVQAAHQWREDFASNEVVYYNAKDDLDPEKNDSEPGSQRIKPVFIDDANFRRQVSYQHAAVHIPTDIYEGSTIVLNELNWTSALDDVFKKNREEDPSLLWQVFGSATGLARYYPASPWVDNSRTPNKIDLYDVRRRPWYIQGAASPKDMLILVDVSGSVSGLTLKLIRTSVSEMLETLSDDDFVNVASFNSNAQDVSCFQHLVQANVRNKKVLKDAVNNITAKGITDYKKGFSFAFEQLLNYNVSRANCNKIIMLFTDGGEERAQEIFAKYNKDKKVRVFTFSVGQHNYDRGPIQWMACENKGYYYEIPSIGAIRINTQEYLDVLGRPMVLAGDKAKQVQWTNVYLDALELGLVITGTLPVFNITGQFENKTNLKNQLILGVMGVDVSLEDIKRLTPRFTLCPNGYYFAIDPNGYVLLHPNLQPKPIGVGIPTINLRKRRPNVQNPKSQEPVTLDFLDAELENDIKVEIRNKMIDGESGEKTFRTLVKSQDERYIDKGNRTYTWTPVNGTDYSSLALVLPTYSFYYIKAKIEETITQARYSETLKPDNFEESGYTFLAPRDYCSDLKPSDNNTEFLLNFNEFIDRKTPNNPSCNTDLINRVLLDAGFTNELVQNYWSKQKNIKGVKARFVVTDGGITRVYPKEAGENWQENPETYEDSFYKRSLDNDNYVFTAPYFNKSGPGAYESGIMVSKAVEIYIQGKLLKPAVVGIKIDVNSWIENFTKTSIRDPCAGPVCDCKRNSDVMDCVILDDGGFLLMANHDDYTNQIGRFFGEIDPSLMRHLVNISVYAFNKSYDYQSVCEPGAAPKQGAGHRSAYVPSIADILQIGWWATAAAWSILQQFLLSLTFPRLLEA
T1 sequence (P13806 961-1106 partner limits assumed, other chains not shown): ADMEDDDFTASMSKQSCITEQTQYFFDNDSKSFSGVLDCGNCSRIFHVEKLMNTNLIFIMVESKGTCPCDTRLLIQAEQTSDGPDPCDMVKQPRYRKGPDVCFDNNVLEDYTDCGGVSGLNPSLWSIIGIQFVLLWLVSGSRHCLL

The first experiment addresses T1, calcium channel (Oryctolagus cuniculus, UniProt P15381).
T1 construct: from tissue; host or cells: rabbit heart membrane preparation
The experiment can be described thus: Assay for Inhibition of Nitrendipine Binding (3H-nitrendipine, heart membranes). The conditions noted are these: 3H-nitrendipine displacement, rabbit heart membranes; Tables 1-5. The method, then: Female, New Zealand white rabbits (1-2 kg) are sacrificed by cervical dislocation, and the heart is immediately removed, cleaned and chopped into small pieces. The tissue is homogenized in 5× times volume of 0.05M Hepes buffer, pH 7.4. The homogenate is centrifuged at 4000 g for 10 minutes, and the supernatant is re-centrifuged at 42,000×g for 90 minutes. The resulting membrane pellet is resuspended (0.7 ml/g weight) in 0.05M Hepes, pH 7.4 and stored at […] until used. Each tube of the binding assay contains ^3H-nitrendipine (0.05-0.50 nM), buffer, membranes (0.10 ml), and test compound in a total volume of 1.0 ml. After 90 minutes at 4° C., the bound nitrendipine is separated from the unbound by filtration on Whatman GF/C filters. After rinsing, the filters are dried and counted in a liquid scintillation counter.
Non-specific binding of ^3H-nitrendipine (that amount bound in the presence of excess unlabelled nitrendipine) is subtracted from the total bound to obtain specifically bound radiolabeled nitrendipine. The amount of specifically bound nitrendipine in the presence of a test compound is compared to that amount bound in the absence of a compound. A percent displacement (or inhibition) can then be calculated.
With `C=C1CS(=O)(=O)C2=C(CS1(=O)=O)NC(C)=C(C(=O)OCCN(C)Cc1ccccc1)C2c1cccc(C(F)(F)F)c1F` (stereo not shown) [Compound 21, 5H-1,4-Dithiepino[6,5-b]pyridine-8-carboxylic acid, 9-[2-fluoro-3-(trifluoromethyl)phenyl]-2,3,6,9-tetrahydro-7-methyl-3-methylene-2-[methyl(phenylmethyl)amino]ethyl ester 1,1,4,4-tetraoxide], the IC50 was 38 nM. Take `CC1=C(C(=O)OCCN(C)Cc2ccccc2)C(c2cccc([N+](=O)[O-])c2)C2=C(CS(=O)(=O)CCCS2(=O)=O)N1` (stereo not shown) [Compound 25, 2H,6H-1,5-Dithiocino[3,2-b]pyridine-9-carboxylic acid, 3,4,7,10-tetrahydro-8-methyl-10-(3-nitrophenyl)-2-[methyl(phenylmethyl)amino]ethyl ester 1,1,5,5-tetraoxide]: the IC50 was 10 nM. Turning to `COC(=O)C1=C(C)NC2=C(C1c1cccc(F)c1F)S(=O)(=O)CCS(=O)(=O)C2` (stereo not shown) [Compound 18, 5H-1,4-Dithiepino[6,5-b]pyridine-8-carboxylic acid, 9-(2,3-difluorophenyl)-2,3,6,9-tetrahydro-7-methyl-methyl ester 1,1,4,4-tetraoxide], the IC50 worked out at 68 nM.

With `CC1=C(C(=O)OCCN(C)Cc2cccs2)C(c2cc(F)c(F)c(F)c2)C2=C(CS(=O)(=O)CCS2(=O)=O)N1` (stereo not shown) [Compound 10, 5H-1,4-Dithiepino[6,5-b]pyridine-8-carboxylic acid, 2,3,6,9-tetrahydro-7-methyl-9-(3,4,5-trifluorophenyl)-2-[methyl(2-thienylmethyl)amino]ethyl ester 1,1,4,4-tetraoxide], the IC50 worked out at 24 nM.

For the compound `CC1=C(C(=O)OCCN(C)Cc2ccccc2)C(c2cccc(C(F)(F)F)c2F)C2=C(CS(=O)(=O)CS2(=O)=O)N1` (stereo not shown) [Compound 31, 4H-1,3-Dithiino[5,4-b]pyridine-7-carboxylic acid, 8-[2-fluoro-3-(trifluoromethyl)phenyl]-5,8-dihydro-6-methyl-2-[methyl(phenylmethyl)amino]ethyl ester 1,1,3,3-tetraoxide], the IC50 was determined as 28 nM.

As for `CC1=C(C(=O)OCCN(C)Cc2ccccc2)C(c2cccc(C(F)(F)F)c2F)C2=C(CS(=O)(=O)CCS2(=O)=O)N1` (stereo not shown) [Compound 7, 5H-1,4-Dithiepino[6,5-b]pyridine-8-carboxylic acid, 9-[2-fluoro-3-(trifluoromethyl)phenyl]-2,3,6,9-tetrahydro-7-methyl-2-[methyl(phenylmethyl)amino]ethyl ester 1,1,4,4-tetraoxide], the IC50 came to 18 nM. On to `COC(=O)C1=C(C)NC2=C(C1c1c(F)cccc1Cl)S(=O)(=O)CCS(=O)(=O)C2` (stereo not shown) [Compound 11, 5H-1,4-Dithiepino[6,5-b]pyridine-8-carboxylic acid, 9-(2-chloro-6-fluorophenyl)-2,3,6,9-tetrahydro-7-methyl-methyl ester 1,1,4,4-tetraoxide], for which the IC50 amounted to 91 nM.

Turning to `CC1=C(C(=O)OCCN(C)Cc2ccccc2)C(c2cc(F)c(F)c(F)c2)C2=C(CS(=O)(=O)CCS2(=O)=O)N1` (stereo not shown) [Compound 9, 5H-1,4-Dithiepino[6,5-b]pyridine-8-carboxylic acid, 2,3,6,9-tetrahydro-7-methyl-9-(3,4,5-trifluorophenyl)-2-[methyl(phenylmethyl)amino]ethyl ester 1,1,4,4-tetraoxide], the IC50 worked out at 13 nM. Same read-out and setting: the same measure for `COC(=O)C1=C(C)NC2=C(C1c1c(F)cccc1F)S(=O)(=O)CCS(=O)(=O)C2` (stereo not shown) [Compound 14, 5H-1,4-Dithiepino[6,5-b]pyridine-8-carboxylic acid, 9-(2,6-difluorophenyl)-2,3,6,9-tetrahydro-7-methyl-methyl ester 1,1,4,4-tetraoxide]: 259 nM; for `CC1=C(C(=O)OCCN(C)Cc2ccccc2)C(c2c(F)cccc2C(F)(F)F)C2=C(CS(=O)(=O)CCCS2(=O)=O)N1` (stereo not shown) [Compound 26, 2H,6H-1,5-Dithiocino[3,2-b]pyridine-9-carboxylic acid, 10-[2-fluoro-6-(trifluoromethyl)phenyl]-3,4,7,10-tetrahydro-8-methyl-2-[methyl(phenylmethyl)amino]ethyl ester 1,1,5,5-tetraoxide]: 28 nM; for `CC1=C(C(=O)OCCN(C)Cc2ccccc2)C(c2c(O)cccc2Cl)C2=C(CS(=O)(=O)CCS2(=O)=O)N1` (stereo not shown) [Compound 4, 5H-1,4-Dithiepino[6,5-b]pyridine-8-carboxylic acid, 9-(2-chloro-6-hydroxyphenyl)-2,3,6,9-tetrahydro-7-methyl-2-[methyl(phenylmethyl)amino]ethyl ester 1,1,4,4-tetraoxide]: 390 nM.

Staying with this experiment, now noted: 3H-nitrendipine displacement, rabbit heart membranes; Tables 6-7.
Consider `CC1=C(C(=O)OCCOC(=O)C(N)CCCCN)C(c2c(F)cccc2Cl)C2=C(CS(=O)(=O)CCS2(=O)=O)N1` (stereo not shown) [Compound 96], for which the IC50 turned out to be 51000 nM. On to `CC1=C(C(=O)OCCOC(=O)C(C)C)C(c2cccc(Cl)c2Cl)C2=C(CS(=O)(=O)CCS2(=O)=O)N1` (stereo not shown) [Compound 34, 5H-[1,4]dithiepino[6,5-b]pyridine-8-carboxylic acid, 9-(2,3-dichlorophenyl)-2,3,6,9-tetrahydro-7-methyl-, 2-(2-methyl-1-oxopropoxy)ethyl ester, 1,1,4,4-tetraoxide], for which the IC50 came to 15 nM.

Regarding `CC1=C(C(=O)OC2CCOC2=O)C(c2c(F)cccc2Cl)C2=C(CS(=O)(=O)CCS2(=O)=O)N1` (stereo not shown) [Compound 60], the IC50 amounted to 174 nM.

Regarding `CC1=C(C(=O)OCCC2CCOC2=O)C(c2c(F)cccc2Cl)C2=C(CS(=O)(=O)CCS2(=O)=O)N1` (stereo not shown) [Compound 85], the IC50 was 1690 nM. With `CC1=C(C(=O)OCCOC(=O)CC(C)C)C(c2c(F)cccc2Cl)C2=C(CS(=O)(=O)CCS2(=O)=O)N1` (stereo not shown) [Compound 38], the IC50 was 35 nM. With `CC1=C(C(=O)OCCOC(=O)c2ccc(OC(C)C)cc2)C(c2c(F)cccc2Cl)C2=C(CS(=O)(=O)CCCS2(=O)=O)N1` (stereo not shown) [Compound 99, 2H,6H-[1,5]dithiocino[3,2-b]pyridine-9-carboxylic acid, 10-(2-chloro-6-fluorophenyl)-3,4,7,10-tetrahydro-8-methyl-, 2-[[4-(1-methylethoxy)benzoyl]oxy]ethyl ester, 1,1,5,5-tetraoxide], the IC50 is 40 nM.

For `CC1=C(C(=O)OCCOC(=O)C(C)C)C(c2c(F)cccc2Cl)C2=C(CS(=O)(=O)CCS2(=O)=O)N1` (stereo not shown) [Compound 64], the IC50 worked out at 220 nM.

In the case of `CC1=C(C(=O)OCCOC(=O)CNC(=O)OC(C)(C)C)C(c2c(F)cccc2Cl)C2=C(CS(=O)(=O)CCS2(=O)=O)N1` (stereo not shown) [Compound 81], the 50% inhibitory concentration (IC50) is 946 nM. With `CCC(CC)C(=O)OCCOC(=O)C1=C(C)NC2=C(C1c1c(F)cccc1Cl)S(=O)(=O)CCS(=O)(=O)C2` (stereo not shown) [Compound 33], the IC50 is 13 nM.

With `COc1cccc(C(=O)OCCOC(=O)C2=C(C)NC3=C(C2c2c(F)cccc2Cl)S(=O)(=O)CCS(=O)(=O)C3)c1` (stereo not shown) [Compound 40], the IC50 is 41 nM. With `CC1=C(C(=O)OCCOC(=O)CN(C)Cc2ccccc2)C(c2c(F)cccc2Cl)C2=C(CS(=O)(=O)CCS2(=O)=O)N1` (stereo not shown) [Compound 47], the IC50 was 50 nM. On to `CC1=C(C(=O)OCCOC(=O)C2CCc3ccccc3C2)C(c2c(F)cccc2Cl)C2=C(CS(=O)(=O)CCS2(=O)=O)N1` (stereo not shown) [Compound 42, 7-methyl-9-[2-fluoro-6-chlorophenyl]-2,3,6 9-tetrahydo-1,1,4,4-tetraoxide 5H-1,4-Dithiepino[6,5-b]pyridine-8-carboxlic acid 2-[1,2,3,4-tetrahydo-2-napthoyl]oxyethyl ester], for which the IC50 amounted to 44 nM. With `CC1=C(C(=O)OCCOC(=O)C(N)C(C)C)C(c2c(F)cccc2Cl)C2=C(CS(=O)(=O)CCS2(=O)=O)N1` (stereo not shown) [Compound 92], the IC50 came out at 5800 nM.

As for `CC1=C(C(=O)OCCOC(=O)CN)C(c2c(F)cccc2Cl)C2=C(CS(=O)(=O)CCS2(=O)=O)N1` (stereo not shown) [Compound 97], the IC50 stood at 150000 nM. For the compound `CC1=C(C(=O)OCCCOC(=O)C(C)C)C(c2c(F)cccc2Cl)C2=C(CS(=O)(=O)CCS2(=O)=O)N1` (stereo not shown) [Compound 62], the IC50 came to 176 nM. On to `CC1=C(C(=O)OCC(=O)OCCc2ccccc2)C(c2c(F)cccc2Cl)C2=C(CS(=O)(=O)CCS2(=O)=O)N1` (stereo not shown) [Compound 59], for which the IC50 worked out at 154 nM. In the case of `CC1=C(C(=O)OCCCO)C(c2c(F)cccc2Cl)C2=C(CS(=O)(=O)CCS2(=O)=O)N1` (stereo not shown) [Compound 83], the IC50 was found to be 1210 nM. Still for that read-out and setting: next, `CC1=C(C(=O)OCCOC(=O)CN(C)C)C(c2c(F)cccc2Cl)C2=C(CS(=O)(=O)CCS2(=O)=O)N1` (stereo not shown) [Compound 84]: 1230 nM; `CC1=C(C(=O)OCC(=O)O)C(c2c(F)cccc2Cl)C2=C(CS(=O)(=O)CCS2(=O)=O)N1` (stereo not shown) [Compound 98, 7-methyl-9-[2-fluoro-6-chlorophenyl]-2,3,6,9-tetrahydro-1,1,4,4-tetraoxide 5H-1,4-Dithiepino[6,5-b]pyridine-8-carboxylic acid carboxymethyl ester]: 316000 nM; `CC1=C(C(=O)OCCOC(=O)c2ccc3ccccc3c2)C(c2c(F)cccc2Cl)C2=C(CS(=O)(=O)CCS2(=O)=O)N1` (stereo not shown) [Compound 46]: 50 nM. With `CC1=C(C(=O)OCC(=O)Oc2ccccc2)C(c2c(F)cccc2Cl)C2=C(CS(=O)(=O)CCS2(=O)=O)N1` (stereo not shown) [Compound 67], the IC50 was found to be 336 nM. In the case of `CC1=C(C(=O)OCCO)C(c2c(F)cccc2Cl)C2=C(CS(=O)(=O)CCS2(=O)=O)N1` (stereo not shown) [Compound 82], the IC50 amounted to 1000 nM. In the case of `CC1=C(C(=O)OCCOC(=O)C(C)(C)C)C(c2c(F)cccc2Cl)C2=C(CS(=O)(=O)CCS2(=O)=O)N1` (stereo not shown) [Compound 89], the IC50 came to 3700 nM.
